As a reminder, the IC50 is the point on the concentration scale where inhibition reaches its midpoint.

Structures can show the parent of a compound that is named as a salt. Where two headings read alike, the source gives them in different places.

The text below walks through data of patent US20110112100A1, “Hepatitis C Virus Inhibitors” (priority 2009, published 2011).

The subject of one test is 1b (con1) replicon cells. Kind of test: HCV 1b replicon inhibitory activity (luciferase, Britelite Plus). The format is cell-based, hepatitis C virus. Particulars: read-out: IC50 value (95% Confidence Intervals) pM Replicon 1B assay. The procedure: (§1) Test compounds were solubilised to 4 mM in 100% DMSO. Dilutions were made to the desired starting concentration in 100% DMSO and then 1 in 3 dilutions made, again in 100% DMSO. 0.5 μl of each sample was added to 384-well assay plates. White Lumitrac (Greiner) plates were used for the 1a and 1b replicon assays and black, clear bottomed (Greiner) plates were used for the WST-1 cytotoxity assay.
1b (con1) replicon cells (pFK1389lucubineo/NS3-3′/ET/9B, licensed from Ralf Bartenschlager, University of Heidelberg) were resuspended to a concentration of 1.4×10^5 cells/ml by addition of pre-warmed medium (DMEM+10% FCS). 50 μl of this suspension was added to each well of a 384-well assay plate (Lumitrac, Greiner) already containing 0.5 μl of test compound.
All plates were covered with gas permeable seals and incubated at 37° C., 5% CO2 for 48 hours. After 48 hours, the plate was removed from the incubator and left to cool to room temperature for 15-30 mins. 35 ul of reconstituted Lyophilised Britelite Plus Substrate (PerkinElmer, 6016767) to medium was added to each well. Luminescence was read after 1 min but before 15 mins on an EnVision (Perkin Elmer) plate reader. The half maximal effective concentration (1050) values were calculated by constructing log concentration-response curves for each compound.
(In general: In antiviral work, replicon cells carry a viral genome segment that copies itself.)

The test system of another test is 1a-H77 replicon cells. Kind of test: HCV 1a replicon inhibitory activity (Renilla luciferase). The test is classed as cell-based, hepatitis C virus. Conditions: read-out: IC50 value (95% Confidence Intervals) pM Replicon 1A assay. The procedure:
as §1
1a-H77 replicon cells (licensed from Apath LLC) were resuspended to a concentration of 1.4×10^5 cells/ml by addition of pre-warmed assay medium (Dulbecco's Modified Eagle's Medium (DMEM)+10% fetal calf serum (FCS)). 50 μl of this suspension was added to each well of a 384-well assay plate (Lumitrac, Greiner), already containing 0.5 μl of test compound.
All plates were covered with gas permeable seals and incubated at 37° C., 5% CO2 for 48 hours. After 48 hours, the assay plate was removed from the incubator and left to cool to room temperature for 15 to 30 mins. Medium was removed from the wells and 5 μl 1× lysis buffer (from Promega's Renilla Luciferase assay kit, E2820) was added to each well. The plate was incubated at room temperature for 15 mins then 15 μl 1×Assay Substrate (from the same kit) was added to each well. Luminescence was read immediately using an EnVision (Perkin Elmer) plate reader. The half maximal effective concentration (1050) values were calculated by constructing log concentration-response curves for each compound.

Where [1] appears, read: Hepatitis C virus, geometric mean, 95% confidence intervals in parentheses, 48 hours, medium with 10% FCS.
[2] abbreviates: geometric mean, 95% confidence intervals in parentheses, 48 hours, medium with 10% FCS.

For the molecule `COC(=O)N[C@H](C(=O)N1CCC[C@H]1c1nc(-c2ccc(-c3cnc4cc(-c5cnc([C@@H]6CCCN6C(=O)CNC(=O)c6cnc(C)cn6)[nH]5)ccc4n3)cc2)c[nH]1)C(C)C` [Example 41, Methyl {(2S)-3-methyl-1-[(2S)-2-{4-[4-(6-{2-[(2S)-1-{N-[(5-methylpyrazin-2-yl)carbonyl]glycyl}pyrrolidin-2-yl]-1H-imidazol-5-yl}quinoxalin-2-yl)phenyl]-1H-imidazol-2-yl}pyrrolidin-1-yl]-1-oxobutan-2-yl}carbamate trifluoroacetic acid salt], the IC50 with 1b (con1) replicon cells (Hepatitis C virus, 48 h) was found to be 128 pM; in the test with 1a-H77 replicon cells (Hepatitis C virus, 48 h), 1950 pM.

In the case of `COC(=O)N[C@H](C(=O)N1CCC[C@H]1c1nc(-c2ccc(-c3cnc4cc(-c5cnc([C@@H]6CCCN6C(=O)C(C)(C)NC(=O)OC)[nH]5)ccc4n3)cc2)c[nH]1)C(C)C` [Example 51, Methyl {(2S)-1-[(2S)-2-{4-[4-(6-{2-[(2S)-1-{2-[(methoxycarbonyl)amino]-2-methylpropanoyl}pyrrolidin-2-yl]-1H-imidazol-5-yl}quinoxalin-2-yl)phenyl]-1H-imidazol-2-yl}pyrrolidin-1-yl]-3-methyl-1-oxobutan-2-yl}carbamate trifluoroacetic acid salt], the IC50 in the test with 1b (con1) replicon cells (Hepatitis C virus, 48 h) stood at 144 pM; in the test with 1a-H77 replicon cells (Hepatitis C virus, 48 h) it was 1850 pM.

Take `COC(=O)N[C@H](C(=O)N1CCC[C@H]1c1ncc(-c2ccc(-c3cnc4cc(-c5cnc([C@@H]6CCCN6C(=O)[C@@H](NC(=O)OC)C(C)C)[nH]5)ccc4n3)cc2)[nH]1)C(C)C` [Example 4, Methyl {(2S)-1-[(2S)-2-{5-[4-(6-{2-[(2S)-1-{(2S)-2-[(methoxycarbonyl)amino]-3-methylbutanoyl}pyrrolidin-2-yl]-1H-imidazol-5-yl}quinoxalin-2-yl)phenyl]-1H-imidazol-2-yl}pyrrolidin-1-yl]-3-methyl-1-oxobutan-2-yl}carbamate]: the IC50 is 7.7 pM with 1b (con1) replicon cells (setting [1]) and 17.4 pM in the test on 1a-H77 replicon cells (setting [1]).

Consider `COC(=O)N[C@H](C(=O)N1CCC[C@H]1c1ncc(-c2ccc(-c3cnc4cc(-c5cnc([C@@H]6CCCN6C(=O)[C@@H](NC(=O)OC)C(C)C)[nH]5)ccc4n3)nc2)[nH]1)C(C)C` [Example 9, Methyl {(2S)-1-[(2S)-2-{5-[6-(6-{2-[(2S)-1-{(2S)-2-[(methoxycarbonyl)amino]-3-methyl-butanoyl}pyrrolidin-2-yl]-1H-imidazol-5-yl}quinoxalin-2-yl)pyridin-3-yl]-1H-imidazol-2-yl}pyrrolidin-1-yl]-3-methyl-1-oxobutan-2-yl}carbamate], for which the IC50 with 1b (con1) replicon cells (setting [1]) worked out at 12.7 pM; in the test on 1a-H77 replicon cells (setting [1]), 42.9 pM.

Take `COC(=O)N[C@H](C(=O)N1CCC[C@H]1c1nc(-c2ccc(-c3cnc4cc(-c5cnc([C@@H]6CCCN6C(=O)CNC(=O)CC(C)C)[nH]5)ccc4n3)cc2)c[nH]1)C(C)C` [Example 33, Methyl {(2S)-3-methyl-1-[(2S)-2-(4-{4-[6-(2-{(2S)-1-[N-(3-methylbutanoyl)glycyl]pyrrolidin-2-yl}-1H-imidazol-5-yl)quinoxazolin-2-yl]phenyl}-1H-imidazol-2-yl}pyrrolidin-1-yl]-1-oxobutan-2-yl} carbamate trifluoroacetic acid salt]: the IC50 worked out at 32.2 pM in the test with 1b (con1) replicon cells (setting [2]) and 2590 pM in the test on 1a-H77 replicon cells (setting [2]).

Turning to `COC(=O)N[C@H](C(=O)N1CCC[C@H]1c1nc(-c2ccc(-c3nc4ccc(-c5c[nH]c([C@@H]6CCCN6C(=O)[C@@H](NC(=O)OC)C(C)C)n5)cc4nc3OC)cc2)c[nH]1)C(C)C` [Example 17, Methyl {(2S)-1-[(2S)-2-{4-[4-(3-methoxy-6-{2-[(2S)-1-{(2S)-2-[(methoxycarbonyl)amino]-3-methylbutanoyl}pyrrolidin-2-yl]-1H-imidazol-4-yl}quinoxalin-2-yl)phenyl]-1H-imidazol-2-yl}pyrrolidin-1-yl]-3-methyl-1-oxobutan-2-yl}carbamate], the results for the IC50 in the test on 1b (con1) replicon cells (setting [1]) and in the test on 1a-H77 replicon cells (setting [1]) were 22.3 pM and 560 pM, respectively.

On to `COC(=O)N[C@H](C(=O)N1CCC[C@H]1c1nc(-c2ccc(-c3cnc4cc(-c5cnc([C@@H]6CCCN6C(=O)CNC(=O)c6[nH]nc7ccccc67)[nH]5)ccc4n3)cc2)c[nH]1)C(C)C` [Example 44, Methyl {(2S)-1-[(2S)-2-(4-{4-[6-(2-{(2S)-1-[N-(2H-indazol-3-ylcarbonyl)glycyl]pyrrolidin-2-yl}-1H-imidazol-5-yl)quinoxalin-2-yl]phenyl}-1H-imidazol-2-yl)pyrrolidin-1-yl]-3-methyl-1-oxobutan-2-yl} carbamate trifluoroacetic acid salt], for which the IC50 in the test with 1b (con1) replicon cells (setting [2]) was found to be 100 pM; with 1a-H77 replicon cells (setting [2]), 3510 pM.

On to `CC[C@@H](NC(=O)OC)C(=O)N1CCC[C@H]1c1ncc(-c2ccc3nc(-c4ccc(-c5c[nH]c([C@@H]6CCCN6C(=O)[C@@H](NC(=O)OC)C(C)C)n5)cc4)cnc3c2)[nH]1` [Example 59, Methyl {(2S)-1-[(2S)-2-{4-[4-(6-{2-[(2S)-1-{(2R)-2-[(methoxycarbonyl)amino]butanoyl}pyrrolidin-2-yl]-1H-imidazol-5-yl}quinoxalin-2-yl)phenyl]-1H-imidazol-2-yl}pyrrolidin-1-yl]-3-methyl-1-oxobutan-2-yl} carbamate trifluoroacetic acid salt], for which the IC50 in the test with 1b (con1) replicon cells (setting [2]) stood at 97.5 pM; with 1a-H77 replicon cells (setting [2]) it was 2390 pM.

On to `COC(=O)N[C@H](C(=O)N1CCC[C@H]1c1ncc(-c2ccc(-c3ccc4cc(-c5cnc([C@@H]6CCCN6C(=O)[C@@H](NC(=O)OC)C(C)C)[nH]5)ncc4c3)cc2)[nH]1)C(C)C` [Example 8, Methyl {(2S)-1-[(2S)-2-{5-[4-(3-{2-[(2S)-1-{(2S)-2-[(methoxycarbonyl)amino]-3-methyl-butanoyl}pyrrolidin-2-yl]-1H-imidazol-5-yl}isoquinolin-7-yl)phenyl]-1H-imidazol-2-yl}pyrrolidin-1-yl]-3-methyl-1-oxobutan-2-yl}carbamate], for which the IC50 in the test with 1b (con1) replicon cells (setting [1]) amounted to 20.5 pM; with 1a-H77 replicon cells (setting [1]), 91.2 pM.

`COC(=O)NCC(=O)N1CCC[C@H]1c1ncc(-c2ccc3nc(-c4ccc(-c5c[nH]c([C@@H]6CCCN6C(=O)[C@@H](NC(=O)OC)C(C)C)n5)cc4)cnc3c2)[nH]1` [Example 65, Methyl {2-[(2S)-2-[5-[2-(4-{2-[(2S)-1-{(2S)-2-[(methoxycarbonyl)amino]-3-methylbutanoyl}pyrrolidin-2-yl]-1H-imidazol-4-yl}phenyl)quinoxalin-6-yl]-1H-imidazol-2-yl}pyrrolidin-1-yl]-2-oxoethyl)carbamate trifluoroacetic acid salt]: the IC50 turned out to be 54.5 pM in the test with 1b (con1) replicon cells (Hepatitis C virus, 48 h) and 700 pM in the test on 1a-H77 replicon cells (Hepatitis C virus, 48 h).

As to `COC(=O)N[C@H](C(=O)N1CCC[C@H]1c1nc(-c2ccc(-c3cnc4cc(-c5cnc([C@@H]6CCCN6C(=O)[C@H](NC(=O)OC)C(C)C)[nH]5)ccc4n3)cc2)c[nH]1)C(C)C` [Example 61, Methyl {(2S)-1-[(2S)-2-{4-[4-(6-{2-[(2S)-1-{(2R)-2-[(methoxycarbonyl)amino]-3-methylbutanoyl}pyrrolidin-2-yl]-1H-imidazol-5-yl}quinoxalin-2-yl)phenyl]-1H-imidazol-2-yl}pyrrolidin-1-yl]-3-methyl-1-oxobutan-2-yl}carbamate trifluoroacetic acid salt], the IC50 amounted to 83.5 pM with 1b (con1) replicon cells (Hepatitis C virus, 48 h) and 6400 pM in the test on 1a-H77 replicon cells (Hepatitis C virus, 48 h).

As to `COC(=O)N[C@H](C(=O)N1CCC[C@H]1c1nc(-c2ccc(-c3cnc4cc(-c5cnc([C@@H]6CCCN6C(=O)CNC(=O)CNC(C)=O)[nH]5)ccc4n3)cc2)c[nH]1)C(C)C` [Example 36, Methyl {(2S)-1-[(2S)-2-{4-[4-(6-{2-[(2S)-1-(N-acetylglycylglycyl)pyrrolidin-2-yl]-1H-imidazol-5-yl}quinoxalin-2-yl)phenyl]-1H-imidazol-2-yl}pyrrolidin-1-yl]-3-methyl-1-oxobutan-2-yl}carbamate trifluoroacetic acid salt], the IC50 with 1b (con1) replicon cells (Hepatitis C virus, 48 h) worked out at 1740 pM; in the test on 1a-H77 replicon cells (Hepatitis C virus, 48 h) it was 29800 pM.
